From the NIST ThermoML archive (doi:10.1021/je1007197)
“And” between values parts separate entries of the source, which are not always exact repeats. Identical values can stand only once. Numbers after ± are expanded uncertainties.

Conditions: Liquid, Hot wire method

CCCCOCCO [2-butoxyethan-1-ol]
thermal conductivity
Conditions | 304.15 K | 321.15 K | 338.15 K
100 kPa | 0.1529 ± 0.001 W/m/K and 0.1533 ± 0.001 W/m/K | 0.1497 ± 0.0009 W/m/K and 0.1496 ± 0.0009 W/m/K | 0.1461 ± 0.0009 W/m/K and 0.1463 ± 0.0009 W/m/K
16400 kPa | 0.1579 ± 0.001 W/m/K | 0.1548 ± 0.001 W/m/K | 0.1518 ± 0.001 W/m/K
27300 kPa | 0.1612 ± 0.001 W/m/K | 0.1585 ± 0.001 W/m/K | 0.1555 ± 0.001 W/m/K
41800 kPa | 0.1646 ± 0.001 W/m/K | 0.1628 ± 0.001 W/m/K | 0.1601 ± 0.001 W/m/K
56100 kPa | 0.1689 ± 0.0011 W/m/K | 0.1665 ± 0.001 W/m/K | 0.164 ± 0.001 W/m/K
70200 kPa | 0.1722 ± 0.0011 W/m/K | 0.1701 ± 0.0011 W/m/K | 0.1677 ± 0.001 W/m/K
79000 kPa | 0.174 ± 0.0011 W/m/K | – | –
83500 kPa | 0.1749 ± 0.0011 W/m/K | – | –
84200 kPa | – | 0.1739 ± 0.0011 W/m/K | 0.1717 ± 0.0011 W/m/K
98200 kPa | 0.1785 ± 0.0011 W/m/K | 0.177 ± 0.0011 W/m/K | 0.1751 ± 0.0011 W/m/K
108700 kPa | – | – | 0.1775 ± 0.0011 W/m/K
112200 kPa | 0.182 ± 0.0011 W/m/K | 0.18 ± 0.0011 W/m/K | –
123400 kPa | – | – | 0.1807 ± 0.0011 W/m/K
124100 kPa | 0.1836 ± 0.0011 W/m/K | – | –
126200 kPa | – | 0.183 ± 0.0011 W/m/K | –
134900 kPa | – | 0.1851 ± 0.0011 W/m/K | –
140100 kPa | 0.187 ± 0.0012 W/m/K | – | 0.1844 ± 0.0011 W/m/K
149200 kPa | 0.1885 ± 0.0012 W/m/K | – | –
150600 kPa | – | 0.1879 ± 0.0012 W/m/K | –
